# According to ChEMBL document CHEMBL1201862, “PubChem BioAssay data set” (2004):
# The source made the active and inactive calls. Cut-off read from the data, not from the text of the source, for most assays here: actives have a measured IC50 and inactives only a lower limit.
# Assays:
# [1] = target: T1, Sentrin-specific protease 6 (Homo sapiens, UniProt Q9GZR1); assay type: functional;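 note: Luminescence-based dose-response confirmatory assay of SENP6 inhibition, following up an ultra-high-throughput screen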
# T1 sequence (Q9GZR1 whole entry): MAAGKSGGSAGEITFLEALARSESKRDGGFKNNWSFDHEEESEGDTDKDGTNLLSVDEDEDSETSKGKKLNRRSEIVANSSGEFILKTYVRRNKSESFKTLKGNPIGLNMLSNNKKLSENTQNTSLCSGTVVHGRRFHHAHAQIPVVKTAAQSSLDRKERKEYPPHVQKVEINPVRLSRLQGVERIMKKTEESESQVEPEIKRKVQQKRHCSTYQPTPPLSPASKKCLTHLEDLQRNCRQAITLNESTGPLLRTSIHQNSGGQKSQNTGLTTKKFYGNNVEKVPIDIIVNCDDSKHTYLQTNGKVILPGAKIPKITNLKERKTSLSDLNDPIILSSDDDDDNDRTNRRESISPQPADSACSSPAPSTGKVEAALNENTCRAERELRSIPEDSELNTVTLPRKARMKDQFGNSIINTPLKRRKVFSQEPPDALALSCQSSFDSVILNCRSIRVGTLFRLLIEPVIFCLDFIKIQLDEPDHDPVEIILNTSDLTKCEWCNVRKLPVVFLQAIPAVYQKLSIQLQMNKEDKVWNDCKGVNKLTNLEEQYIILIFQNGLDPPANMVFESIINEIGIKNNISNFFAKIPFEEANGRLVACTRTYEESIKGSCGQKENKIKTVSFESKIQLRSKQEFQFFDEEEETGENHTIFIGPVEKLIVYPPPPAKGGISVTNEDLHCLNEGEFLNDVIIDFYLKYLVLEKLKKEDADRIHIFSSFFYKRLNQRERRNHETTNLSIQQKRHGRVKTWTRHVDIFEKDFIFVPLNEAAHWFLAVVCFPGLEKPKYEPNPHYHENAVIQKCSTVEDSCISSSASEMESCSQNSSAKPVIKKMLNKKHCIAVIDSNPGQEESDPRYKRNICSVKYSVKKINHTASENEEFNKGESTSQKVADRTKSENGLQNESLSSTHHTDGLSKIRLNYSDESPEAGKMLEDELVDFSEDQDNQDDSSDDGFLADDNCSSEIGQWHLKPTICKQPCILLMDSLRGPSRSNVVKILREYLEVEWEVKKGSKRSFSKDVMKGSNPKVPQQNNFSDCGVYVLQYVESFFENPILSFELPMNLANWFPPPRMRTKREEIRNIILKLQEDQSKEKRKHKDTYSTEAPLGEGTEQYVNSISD
# [2] = target: T2, Sentrin-specific protease 7 (Homo sapiens, UniProt Q9BQF6); assay type: functional;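 note: Luminescence-based dose-response confirmation of ultra-high-throughput screening hits, measuring inhibition of SENP7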
# T2 sequence (Q9BQF6 whole entry): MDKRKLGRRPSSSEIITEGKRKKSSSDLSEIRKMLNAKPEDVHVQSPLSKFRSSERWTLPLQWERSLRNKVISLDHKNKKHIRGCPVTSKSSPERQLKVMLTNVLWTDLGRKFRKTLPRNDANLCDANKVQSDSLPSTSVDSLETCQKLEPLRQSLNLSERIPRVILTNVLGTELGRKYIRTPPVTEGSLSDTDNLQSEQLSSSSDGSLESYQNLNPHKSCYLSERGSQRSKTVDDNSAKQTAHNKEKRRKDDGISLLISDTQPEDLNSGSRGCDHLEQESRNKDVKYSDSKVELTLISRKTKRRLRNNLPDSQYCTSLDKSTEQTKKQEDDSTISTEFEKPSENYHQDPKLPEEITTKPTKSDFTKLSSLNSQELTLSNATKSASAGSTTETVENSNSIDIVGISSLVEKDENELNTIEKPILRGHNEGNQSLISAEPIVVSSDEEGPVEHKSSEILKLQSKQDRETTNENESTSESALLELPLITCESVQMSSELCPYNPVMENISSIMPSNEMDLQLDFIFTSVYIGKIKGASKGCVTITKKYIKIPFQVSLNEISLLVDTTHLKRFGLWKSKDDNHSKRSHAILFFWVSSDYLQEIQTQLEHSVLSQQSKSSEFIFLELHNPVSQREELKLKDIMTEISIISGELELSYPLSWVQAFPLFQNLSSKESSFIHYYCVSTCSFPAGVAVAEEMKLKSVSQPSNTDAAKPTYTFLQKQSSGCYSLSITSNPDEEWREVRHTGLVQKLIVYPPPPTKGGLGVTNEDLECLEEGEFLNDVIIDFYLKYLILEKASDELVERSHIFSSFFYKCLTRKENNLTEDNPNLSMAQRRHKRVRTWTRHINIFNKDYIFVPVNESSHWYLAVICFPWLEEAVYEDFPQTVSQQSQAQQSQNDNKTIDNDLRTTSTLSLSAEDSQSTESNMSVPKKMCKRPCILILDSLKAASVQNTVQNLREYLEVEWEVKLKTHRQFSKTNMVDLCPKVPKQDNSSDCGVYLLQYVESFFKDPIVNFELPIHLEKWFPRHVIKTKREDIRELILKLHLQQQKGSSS
# [3] = target: T3, Caspase-3 (Homo sapiens, UniProt P42574); assay type: functional;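 note: Dose-response selectivity test against caspase-3 for candidate inhibitors of sentrin-specific proteases (SENPs)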
# T3 sequence (P42574 whole entry): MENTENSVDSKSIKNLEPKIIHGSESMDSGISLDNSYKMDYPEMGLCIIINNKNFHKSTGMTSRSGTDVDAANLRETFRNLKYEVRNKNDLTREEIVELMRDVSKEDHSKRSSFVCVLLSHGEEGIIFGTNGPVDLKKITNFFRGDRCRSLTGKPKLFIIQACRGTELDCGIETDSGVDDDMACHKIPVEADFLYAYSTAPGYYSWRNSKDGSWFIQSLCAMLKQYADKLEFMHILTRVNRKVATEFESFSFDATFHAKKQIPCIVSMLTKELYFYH
# [4] = target: T4, Sentrin-specific protease 8 (Homo sapiens, UniProt Q96LD8); assay type: functional;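 note: luminescence read-out of SENP8 inhibition, dose-response confirmation following an ultra-high-throughput screen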
# T4 sequence (Q96LD8 whole entry): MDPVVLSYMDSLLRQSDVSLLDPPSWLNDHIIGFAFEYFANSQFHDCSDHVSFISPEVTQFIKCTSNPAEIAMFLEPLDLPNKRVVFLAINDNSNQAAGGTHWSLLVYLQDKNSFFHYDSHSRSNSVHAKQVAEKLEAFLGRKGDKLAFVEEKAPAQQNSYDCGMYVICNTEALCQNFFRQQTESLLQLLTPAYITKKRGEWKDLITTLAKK
# [5] = target: T5, DNA repair and recombination protein RAD54-like (Homo sapiens, UniProt Q92698); experiment: inhibitors of human RAD54 branch migration, confirmation, biochemical, fluorescence, cherry-picked samples, dose series (AID 651657); assay type: functional
# T5 sequence (Q92698 whole entry): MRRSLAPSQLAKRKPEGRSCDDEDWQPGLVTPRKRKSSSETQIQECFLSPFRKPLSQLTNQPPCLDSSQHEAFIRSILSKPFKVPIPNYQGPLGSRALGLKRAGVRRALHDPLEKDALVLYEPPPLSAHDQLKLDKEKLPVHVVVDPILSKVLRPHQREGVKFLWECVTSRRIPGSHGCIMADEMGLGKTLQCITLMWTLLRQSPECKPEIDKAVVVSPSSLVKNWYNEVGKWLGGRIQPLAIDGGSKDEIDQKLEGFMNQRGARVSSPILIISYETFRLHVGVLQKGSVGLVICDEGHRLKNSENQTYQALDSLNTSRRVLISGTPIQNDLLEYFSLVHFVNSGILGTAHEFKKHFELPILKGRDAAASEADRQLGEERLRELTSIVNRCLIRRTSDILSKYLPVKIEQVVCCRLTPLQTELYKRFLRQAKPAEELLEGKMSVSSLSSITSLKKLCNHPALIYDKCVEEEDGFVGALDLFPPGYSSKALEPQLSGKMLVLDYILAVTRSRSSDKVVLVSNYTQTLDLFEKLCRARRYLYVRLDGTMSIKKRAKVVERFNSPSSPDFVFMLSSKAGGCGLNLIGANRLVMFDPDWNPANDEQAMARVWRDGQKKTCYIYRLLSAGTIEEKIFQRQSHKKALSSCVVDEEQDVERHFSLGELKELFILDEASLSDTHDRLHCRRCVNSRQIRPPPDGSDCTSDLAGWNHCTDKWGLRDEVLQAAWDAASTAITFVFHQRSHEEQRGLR
# [6] = target: Cytochrome P450 2D6 (Homo sapiens, UniProt P10635);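 note: CYP2D6 member of a cytochrome P450 panel assay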
# [7] = target: T6, Heat shock factor protein 1 (Mus musculus, UniProt P38532); experiment: HSF1 potentiators in luciferase reporter cells, confirmation, cell-based, NIH3T3, luminescence, dose retest (AID 435004); assay type: functional;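 note: stress induced by proteasome inhibitor MG132 added 30 min after compound; luciferase reporter driven by HSF1 response element in NIH3T3 cells; actives raise luminescence as potentiators of the MG132 stress response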
# T6 sequence (P38532 whole entry): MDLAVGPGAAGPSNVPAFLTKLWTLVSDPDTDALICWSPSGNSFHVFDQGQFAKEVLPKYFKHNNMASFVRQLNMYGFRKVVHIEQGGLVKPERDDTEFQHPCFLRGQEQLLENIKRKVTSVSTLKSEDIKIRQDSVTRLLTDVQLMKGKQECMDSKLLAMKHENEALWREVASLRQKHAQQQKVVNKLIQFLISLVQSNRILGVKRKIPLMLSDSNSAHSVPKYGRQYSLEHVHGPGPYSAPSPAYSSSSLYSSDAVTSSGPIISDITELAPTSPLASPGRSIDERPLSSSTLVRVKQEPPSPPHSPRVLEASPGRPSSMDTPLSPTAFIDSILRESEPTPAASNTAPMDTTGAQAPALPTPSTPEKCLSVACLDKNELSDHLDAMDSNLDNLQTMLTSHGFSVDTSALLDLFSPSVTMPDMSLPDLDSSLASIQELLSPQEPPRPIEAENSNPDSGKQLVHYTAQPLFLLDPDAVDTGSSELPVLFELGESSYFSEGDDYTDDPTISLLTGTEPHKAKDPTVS
# Chain of Cytochrome P450 2D6 (P10635 whole entry): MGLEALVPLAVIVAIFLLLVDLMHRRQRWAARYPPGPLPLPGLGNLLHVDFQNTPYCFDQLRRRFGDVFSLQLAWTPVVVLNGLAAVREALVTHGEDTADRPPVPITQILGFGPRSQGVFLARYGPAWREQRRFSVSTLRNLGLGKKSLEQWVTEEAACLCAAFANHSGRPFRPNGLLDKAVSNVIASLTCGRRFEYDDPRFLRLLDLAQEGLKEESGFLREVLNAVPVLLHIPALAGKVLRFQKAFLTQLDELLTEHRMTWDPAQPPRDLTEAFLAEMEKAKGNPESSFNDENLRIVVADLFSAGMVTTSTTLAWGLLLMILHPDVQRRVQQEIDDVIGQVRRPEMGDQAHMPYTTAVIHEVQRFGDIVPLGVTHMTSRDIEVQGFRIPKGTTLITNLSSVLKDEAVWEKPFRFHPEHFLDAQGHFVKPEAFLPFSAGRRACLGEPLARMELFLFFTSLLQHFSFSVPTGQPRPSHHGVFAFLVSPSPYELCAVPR
Compound,IC50 [1],IC50 [2],IC50 [3],IC50 [4],AC50 [5],AC50 [6],EC50 [7]
CCOc1ccccc1NC(=O)Nc1ccc2c(c1)CCC2,9.82 µM (active),5.64 µM (active),30.8 µM (active),9.29 µM (active),–,–,–
O=C(Nc1cccc(Cl)c1)c1cc(S(=O)(=O)N2CCOCC2)cs1,–,–,–,–,30.1 µM (active),–,–
COc1ccc(/C(C)=N/OCC(=O)Nc2nc3ccccc3s2)cc1OC,36.1 µM (active),9.91 µM (active),49.3 µM (active),62.2 µM (active),–,–,–
CSc1ccccc1NC(=O)c1cc(C2CC2)on1,30.7 µM (active),10.1 µM (active),18.6 µM (active),33.3 µM (active),–,–,–
CN1CCN(c2nc(-c3cccs3)nc3ccccc23)CC1,–,–,–,–,8.93 µM (active),–,–
CCOC(=O)Nc1ccc(C(=O)Oc2ccccc2)c(O)c1,47.6 µM (active),11.6 µM (active),61.3 µM (active),79.9 µM (active),–,25.1 µM (inconclusive),49.2 µM (active)
